Source: publication PMC2746553 (Biochemistry, 2009)
One block for each compound: values may come before it.

How the values were obtained:
[1] = molecular target: T1, 15-hLO-2 (human epithelial 15-lipoxygenase-2) (Homo sapiens, UniProt O15296); assay: competitive substrate capture, solvent isotope effect and steady-state kinetics; format: biochemical
T1 sequence (O15296 1-676): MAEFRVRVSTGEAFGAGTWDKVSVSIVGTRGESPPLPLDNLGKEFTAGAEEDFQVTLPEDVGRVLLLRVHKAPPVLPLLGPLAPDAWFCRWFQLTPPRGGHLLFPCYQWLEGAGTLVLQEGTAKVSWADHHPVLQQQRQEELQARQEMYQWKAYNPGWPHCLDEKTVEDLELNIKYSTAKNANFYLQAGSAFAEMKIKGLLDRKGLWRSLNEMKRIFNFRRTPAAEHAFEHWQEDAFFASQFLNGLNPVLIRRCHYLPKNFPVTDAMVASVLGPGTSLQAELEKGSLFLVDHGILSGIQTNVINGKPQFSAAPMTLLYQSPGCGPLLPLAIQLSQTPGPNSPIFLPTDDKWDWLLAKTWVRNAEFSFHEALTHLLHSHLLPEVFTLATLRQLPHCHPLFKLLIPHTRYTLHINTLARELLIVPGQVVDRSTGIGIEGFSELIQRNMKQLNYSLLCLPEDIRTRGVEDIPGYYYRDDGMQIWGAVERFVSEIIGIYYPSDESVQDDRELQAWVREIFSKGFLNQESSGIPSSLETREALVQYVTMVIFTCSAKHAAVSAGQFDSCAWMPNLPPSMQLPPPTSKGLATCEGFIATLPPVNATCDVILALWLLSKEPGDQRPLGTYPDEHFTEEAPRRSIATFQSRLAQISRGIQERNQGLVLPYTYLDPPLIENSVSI

[2] = molecular target: T1, 15-hLO-2 (human epithelial 15-lipoxygenase-2)
[3] = molecular target: T1, 15-hLO-2 (human epithelial 15-lipoxygenase-2); assay: competitive kinetic isotope effect and competitive substrate capture; format: biochemical
[4] = molecular target: T1, 15-hLO-2 (human epithelial 15-lipoxygenase-2); assay: steady-state inhibition kinetics with AA as substrate; format: biochemical

- Kd [1]: ~0.005 µM
Compound: CCCCC[C@H](O)/C=C/C=C\CCCCCCCC(=O)O [13-HODE, 13-(S)-hydroxyoctadecadienoic acid]

Compound: CCCCC/C=C\C/C=C\C/C=C\C/C=C\CCCC(=O)O [AA, arachidonic acid]
- steady-state kinetics (234 nm), kcat/KM at pH 7.5 [2]: 0.15 ± 0.02 μM^-1 s^-1

Compound: CCCCC/C=C\C/C=C\CCCCCCCC(=O)O [LA, linoleic acid]
- competitive kinetic isotope effect and competitive substrate capture (HPLC) [3]: 45 ± 3

Compound: CCCCC/C=C\C/C=C\CCCCCCCC(=O)O [d31-LA]
- Ki [4]: 17 ± 3 µM
